# Literature values as cited in patent publication US20060165806A1, “Nanoparticulate candesartan formulations” (Elan Pharma International Limited, priority 2005, published 2006).
# Assays:
# ACE (kininase II) = ACE (kininase II) (Homo sapiens, UniProt P12821)
# [1] = system: other hormone receptors or ion channels known to be important in cardiovascular regulation; conditions: receptors and channels important in cardiovascular regulation
# AT1 receptor = target: T1, AT1 receptor (Homo sapiens, UniProt P30556); conditions: AT1 versus AT2 receptor
# T1 sequence (P30556 1-359): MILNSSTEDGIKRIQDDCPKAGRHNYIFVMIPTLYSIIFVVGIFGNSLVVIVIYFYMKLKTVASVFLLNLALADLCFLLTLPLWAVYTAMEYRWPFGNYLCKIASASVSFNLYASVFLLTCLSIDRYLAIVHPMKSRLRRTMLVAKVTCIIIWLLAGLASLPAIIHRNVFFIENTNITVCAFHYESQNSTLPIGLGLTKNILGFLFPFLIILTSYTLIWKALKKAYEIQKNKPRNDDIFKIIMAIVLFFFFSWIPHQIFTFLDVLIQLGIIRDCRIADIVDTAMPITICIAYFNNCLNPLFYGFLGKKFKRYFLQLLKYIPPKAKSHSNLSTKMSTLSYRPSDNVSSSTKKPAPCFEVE
# Chain of ACE (kininase II) (P12821 30-1306, species assumed): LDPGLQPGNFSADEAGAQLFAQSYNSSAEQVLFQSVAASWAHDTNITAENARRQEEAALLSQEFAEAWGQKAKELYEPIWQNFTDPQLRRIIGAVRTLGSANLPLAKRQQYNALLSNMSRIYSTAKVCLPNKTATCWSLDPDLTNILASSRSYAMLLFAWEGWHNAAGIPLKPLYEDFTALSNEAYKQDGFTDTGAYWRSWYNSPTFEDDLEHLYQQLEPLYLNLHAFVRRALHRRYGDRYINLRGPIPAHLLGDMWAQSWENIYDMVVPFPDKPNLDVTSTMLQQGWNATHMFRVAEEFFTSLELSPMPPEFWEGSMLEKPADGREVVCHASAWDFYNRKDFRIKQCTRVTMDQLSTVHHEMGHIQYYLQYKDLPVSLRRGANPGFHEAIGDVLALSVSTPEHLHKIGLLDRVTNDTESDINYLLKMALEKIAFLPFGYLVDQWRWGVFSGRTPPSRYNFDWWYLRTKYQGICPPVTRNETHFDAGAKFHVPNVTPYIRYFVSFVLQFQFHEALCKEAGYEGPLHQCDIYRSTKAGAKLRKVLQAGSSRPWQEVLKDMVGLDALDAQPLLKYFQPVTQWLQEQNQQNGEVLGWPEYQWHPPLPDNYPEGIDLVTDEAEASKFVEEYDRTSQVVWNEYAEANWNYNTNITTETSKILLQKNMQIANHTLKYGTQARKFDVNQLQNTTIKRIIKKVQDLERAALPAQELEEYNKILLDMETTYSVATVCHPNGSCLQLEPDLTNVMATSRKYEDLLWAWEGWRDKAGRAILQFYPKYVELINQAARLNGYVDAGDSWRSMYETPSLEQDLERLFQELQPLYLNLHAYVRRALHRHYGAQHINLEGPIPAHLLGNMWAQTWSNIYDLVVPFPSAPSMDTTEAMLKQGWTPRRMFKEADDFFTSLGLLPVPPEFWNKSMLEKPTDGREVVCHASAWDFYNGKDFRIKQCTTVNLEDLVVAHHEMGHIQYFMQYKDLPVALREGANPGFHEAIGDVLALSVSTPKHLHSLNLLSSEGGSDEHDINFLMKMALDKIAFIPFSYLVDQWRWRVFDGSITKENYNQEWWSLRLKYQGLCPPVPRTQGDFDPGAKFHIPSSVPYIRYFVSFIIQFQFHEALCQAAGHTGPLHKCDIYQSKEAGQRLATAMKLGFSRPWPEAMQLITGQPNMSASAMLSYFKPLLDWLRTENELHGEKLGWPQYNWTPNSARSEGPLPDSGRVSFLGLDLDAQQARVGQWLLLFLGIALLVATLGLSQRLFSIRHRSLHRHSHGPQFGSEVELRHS
SMILES,inhibition of ACE (kininase II) (ACE (kininase II)),binding to or blocking of other hormone receptors or ion channels [1],greater affinity for the AT1 receptor than for the AT2 receptor (AT1 receptor),solubility in water
CCOc1nc2cccc(C(=O)O)c2n1Cc1ccc(-c2ccccc2-c2nnn[nH]2)cc1 [Candesartan],does not inhibit,does not bind to or block,"> 10,000 fold",
"CCOc1nc2cccc(C(=O)OC(C)OC(=O)OC3CCCCC3)c2n1Cc1ccc(-c2ccccc2-c2nnn[nH]2)cc1 (racemic) [Candesartan cilexitil, (“)-1-Hydroxyethyl 2-ethoxy-1-[p-(o-1H-tetrazol-5-ylphenyl)benzyl]-7-benzimidazolecarboxylate, cyclohexyl carbonate(ester)]",,,,practically insoluble
